US10344035B2, “Salt of quinolone compound, polymorphs thereof, preparation method therefor, composition, and applications” (SHANGHAI PHARMACEUTICALS HOLDING CO., LTD., priority 2015, dated 2019)
Where a name gives a salt, the structure may show the parent alone.

Assay: Pharmacokinetic study in rats
Details: for concentration at 60 min / concentration at 90 min / concentration at 120 min / concentration at 240 min / concentration at 360 min / concentration at 480 min / concentration at 720 min / concentration at 1440 min / concentration at 5 min / concentration at 15 min / concentration at 30 min: oral, 20 μmol/kg, intragastric 20 μmol/kg
Protocol: All stock solutions of the test compound were sonicated and heated to become clarified and formulated to a 25 mM solution with DMSO.
All samples were dosed at 20 μmol/kg.
The blood sample was centrifuged at 8000 rpm for 5 min, the plasma was collected in a centrifuge tube and stored at −20° C. for use.
Treatment of the plasma sample: the proteins in 50 μL plasma sample were precipitated with 200 μL acetonitrile containing internal standard (Propranolol (PRO), 2.5 ng/mL). Vortexed for 10 min, centrifuged at 6000 g for 10 min, the supernatant was taken and 5-fold diluted with the mobile phase, and the supernatant was injected into a 96-well plate for analysis.
flow rate: 0.3 mL/min; injection volume: 2 μL; column temperature 45° C. The gradient elution procedure was: […]
The ion source was an electrospray ionization source (Turbo Ionspray, ESI); the electrospray voltage was 5500V; the temperature was 500° C.; pressure of ion source gas 1 (N2) was 50 psi; pressure of ion source gas 2 (N2) was 50 psi; pressure of curtain gas (N2) 20 psi; pressure of collision gas (CAD) was Medium; scan time was 100 ms; positive ion mode detection; scan mode was multiple reaction monitoring (MRM), ion reaction and collision energy (CE) for quantitative analysis, declustering potential (DP) are shown in the following table: […]

[1] = SD (Sprague-Dawley), rat, plasma, Plasma concentration Mean, SD rats, mean of 3 rats
[2] = SD (Sprague-Dawley), rat, plasma, Plasma concentration Rat1, SD rats, Rat1
[3] = SD (Sprague-Dawley), rat, plasma, Plasma concentration Rat 2, SD rats, Rat 2
[4] = SD (Sprague-Dawley), rat, plasma, Plasma concentration Rat 3, SD rats, Rat 3
[5] = SD rats, intragastric, 20 umol/kg
[6] = SD, rat, plasma, Plasma concentration Mean, SD rats, mean of 3 rats
[7] = SD, rat, plasma, Plasma concentration Rat1, SD rats, Rat1
[8] = SD, rat, plasma, Plasma concentration Rat 2, SD rats, Rat 2
[9] = SD, rat, plasma, Plasma concentration Rat 3, SD rats, Rat 3

## CNC(=O)c1ccc(-c2cnc3ncc(Cc4ccc5ncccc5c4)n3n2)cc1F [INCB28060 hydrochloride]
[1]
  concentration at 60 min: 910 nM
  concentration at 90 min: 730 nM
  concentration at 120 min: 600 nM
  concentration at 240 min: 430 nM
  concentration at 360 min: 180 nM
  concentration at 480 min: 80 nM
  concentration at 720 min: 30 nM
  concentration at 1440 min: 10 nM
[2]
  concentration at 5 min: 15.3 nM
  concentration at 60 min: 616 nM
  concentration at 90 min: 394 nM
  concentration at 120 min: 305 nM
  concentration at 240 min: 465 nM
  concentration at 360 min: 193 nM
  concentration at 480 min: 88.5 nM
  concentration at 720 min: 62.6 nM
  concentration at 1440 min: 8.08 nM
[3]
  concentration at 5 min: 42.5 nM
  concentration at 60 min: 1210 nM
  concentration at 90 min: 961 nM
  concentration at 120 min: 725 nM
  concentration at 240 min: 333 nM
  concentration at 360 min: 148 nM
  concentration at 480 min: 42 nM
  concentration at 720 min: 13.1 nM
  concentration at 1440 min: 6.99 nM
[4]
  concentration at 5 min: 22.2 nM
  concentration at 60 min: 897 nM
  concentration at 90 min: 835 nM
  concentration at 120 min: 758 nM
  concentration at 240 min: 495 nM
  concentration at 360 min: 211 nM
  concentration at 480 min: 107 nM
  concentration at 720 min: 25.7 nM
  concentration at 1440 min: 15.6 nM
[5]
  Clearance: 89 mL/min/kg
  Vss: 24.325 L/kg
  Vz: 35.978 L/kg
  thalf: 283.79 min
[6]
  concentration at 5 min: 30 nM
  concentration at 15 min: 530 nM
  concentration at 30 min: 1030 nM
[7]
  concentration at 15 min: 399 nM
  concentration at 30 min: 784 nM
[8]
  concentration at 15 min: 732 nM
  concentration at 30 min: 1320 nM
[9]
  concentration at 15 min: 448 nM
  concentration at 30 min: 990 nM
SD, rat, plasma, po, 20 umol/kg, AUC(0-t), SD rats, intragastric
  AUC(0-t): 3.73 µM·h
SD, rat, plasma, po, 20 umol/kg, AUCextra, SD rats, intragastric
  AUC: 0.0715 µM·h
SD, rat, plasma, po, 20 umol/kg, AUCtot, SD rats, intragastric
  AUC: 3.8 µM·h
SD, rat, plasma, po, 20 umol/kg, Cmax, SD rats, intragastric
  Cmax: 1030 nM
SD, rat, plasma, po, 20 umol/kg, MRT, SD rats, intragastric
  MRT: 4.53 h
SD, rat, plasma, po, 20 umol/kg, Tmax, SD rats, intragastric
  Tmax: 0.5 h
rats, 20 μmol/kg intragastric
  exposure in rats (comparison in words): not as good as that of crystal form A of SPH1772 ditartrate and crystal form A of SPH1772
